The values below come from article PMC11582173, “Synthesis, cytotoxicity, anti-inflammatory, anti-metastatic and anti-oxidant activities of novel chalcones incorporating 2-phenoxy-N-arylacetamide and thiophene moieties: induction of apoptosis in MCF7 and HEP2 cells” (Naunyn-Schmiedeberg's Archives of Pharmacology, 2024).

≈ marks a conversion by molar mass, not a printed value. Where “and” joins values, the source holds several entries; their conditions need not be identical. Equal values may be shown once.

In one assay the test system is IL-6. As to the kind of experiment: ELISA, IL-6 concentration. Type of assay: cell-based, human. As for the experimental part:
(§1) The concentrations of matrix metalloproteinase-2 (MMP2), matrix metalloproteinase-9 (MMP9), Bcl2, BAX, P53, Malondialdehyde (MDA), Glutathione (GSH), caspase 8, caspase 9 and IL-6 were measured quantitatively in 5c treated MCF7 and HEP2 cells using ELISA (Enzyme-Linked Immunosorbent Assay) (Table 4). Gelatinases are a collective word for MMP-2 and MMP-9, where MMP-2 is gelatinase-A and MMP-9 is gelatinase-B. Solid tumor invasion, metastasis, and angiogenesis have long been linked to gelatinases (Das et al. [2021]). […] Bcl2 is a crucial protein that targets apoptosis inhibition. It is regarded as a predictive biomarker or therapeutic target in the diagnosis of cancer due to its broad expression in a variety of cancers (Porter et al. [2009]). […] The pro-apoptotic protein BAX permeabilizes the mitochondrial outer membrane by changing from a cytosolic monomer to a hazardous oligomer triggering the apoptosis process (Fulda and Debatin [2006]). […] P53 transcription factor performs an essential tumor suppressor role by coordinating a wide range of physiological responses, including DNA repair, cell cycle arrest, cellular senescence, cell death, cell differentiation, and metabolism (Liebl and Hofmann [2021]). It was activated in MCF7 and HEP2-treated cells with values (4.28 and 3.109 ng/mL), respectively, compared to their controls (3.44 and 2.06 ng/mL). […]
(In general: An ELISA detects its analyte on a solid surface through an enzyme-linked reagent.)

Another assay deals with P53. As to the kind of experiment: ELISA, P53 concentration. It counts as cell-based, human. As for the experimental part:
as §1

Another assay relates to MMP9. Kind of assay: ELISA, MMP9 concentration. Type of assay: cell-based, human. As for the experimental part:
as §1

The test system of assay [1] is human breast carcinoma (MCF7) cells. As to the kind of experiment: SRB cytotoxic assay, MCF7. It counts as cell-based. The following applies: MCF7, 48 h. As for the experimental part:
All the prepared compounds were screened at a concentration of 100 µg/mL against six different human cell lines: human laryngeal carcinoma (HEP2), human colorectal carcinoma (HCT116), human breast carcinoma (MCF7), human Lung carcinoma (A549), human liver carcinoma (HEPG2), and normal African Green monkey kidney cell line (VERO). Doxorubicin was used as a positive control for comparison purposes.
The human laryngeal carcinoma (HEP2), colorectal carcinoma (HCT116), breast carcinoma (MCF7), Lung carcinoma (A549), liver carcinoma (HEPG2), and normal African Green monkey kidney cell line (VERO) were purchased from American Tissue Culture Collection (Rockville, MD, USA). The cells were treated for 48 h with a single dose (100 µg/mL) of all the tested chalcones. […] In brief, the cells were seeded in a 96-well microtiter plate at a concentration of 5×10^3 cells/well in 100 µL fresh RPMI-1640 medium and left to attach to the plates for 24 h. Then, cells were incubated with 100 μL of different concentrations (50, 25, 12.5, 6.25, and 0.0 µg/mL) of 5c in triplicate at 37 °C for 48 h. After that, the cells were fixed with 10 µL cold 100% Trichloroacetic acid (TCA) for 1h at 4 °C. The wells were then washed 1 time with distilled water using (automatic Tecan washer, Germany) and stained for 30 min at room temperature with 50 µL 0.4% SRB dissolved in 1% acetic acid. The plates were air-dried and the dye was solubilized with 100 µl/well of 1M tris base (pH 10.5) for 5 min. The optical density (O.D.) of each well was measured spectrophotometrically at 570 nm with an ELISA microplate reader (Sunrise Tecan reader, Germany) with automatic shaking for 30 seconds before reading. The mean background absorbance was subtracted automatically and mean values for each drug concentration were calculated. The percentage of cell survival was calculated as follows: Survival fraction= O.D. (treated cells)/ O.D. (control cells) (Bhat et al. [2023]).
For orientation: The SRB assay estimates cell density from bound dye.

`COc1ccc(NC(=O)COc2ccc(C=CC(=O)c3cccs3)cc2)cc1` [Compound 5c, N-(4-Methoxyphenyl)-2-(4-(3-oxo-3-(thiophen-2-yl)prop-1-en-1-yl)phenoxy)acetamide]: the IL-6 concentration in the assay with IL-6 (5c treated HEP2 cells, untreated 85.24±1.16) was 54.27 pg/mL and 54.27 ± 5.509 pg/mL; with IL-6 (5c treated MCF7 cells, untreated 100.47±0.439), 74.68 pg/mL and 74.68 ± 0.979 pg/mL. Moreover, the P53 concentration was 3.109 ng/mL and 3.109 ± 0.089 ng/mL with P53 (5c treated HEP2 cells, untreated 2.06±0.425); 4.28 ng/mL and 4.28 ± 0.188 ng/mL in the assay on P53 (5c treated MCF7 cells, untreated 3.44±0.25). Further, the MMP9 concentration with MMP9 (5c treated HEP2 cells, untreated 564.8±41.45) is 236.5 ng/mL and 236.5 ± 24.87 ng/mL; in the assay with MMP9 (5c treated MCF7 cells, untreated 588.28±24.87) it was 271.6 ng/mL and 271.6 ± 58.04 ng/mL. In addition, the IC50 (usually the concentration that gives 50% inhibition) in assay [1] was determined as 9.5 µg/mL (≈ 24.1 µM). Further, the inhibition at 100 µg/mL in assay [1] (single dose 100 µg/mL, read-out: %Inhibition at100 µg/mL MCF7) is > 75%.
